Results on 32 molecules are retold here after ChEMBL document CHEMBL5352390, “Design, synthesis and biological evaluation of (Quinazoline 4-yloxy)acetamide and (4-oxoquinazoline-3(4H)-yl)acetamide derivatives as inhibitors of Mycobacterium tuberculosis bd oxidase” (2022).

In test [1] the test system is Mycobacterium tuberculosis. Put plainly: Antimycobacterial activity against wild type Mycobacterium tuberculosis H37Rv assessed as inhibition of bacterial growth incubated for 7 days by resazurin microplate assay. The class given is functional. The settings on record: 168 h, time 7 day. (In general: Alamar Blue is a resazurin reagent that responds to reducing activity.)

In test [2] the test system is Mycobacterium tuberculosis. Put plainly: Bactericidal activity against wild type Mycobacterium tuberculosis H37Rv under hypoxia condition assessed as reduction in log10 CFU at 0.03 uM incubated for 3 days by Methylene blue dye based CFU assay. The class given is functional. The note with it: time 3 day.
The test system of test [3] is Mycobacterium tuberculosis. Put plainly: Inhibition of wild type Mycobacterium tuberculosis H37Rv cytochrome bd oxidase assessed as reduction in total cellular ATP level by measuring relative luminescence unit at 0.1 uM incubated for 15 hrs by BacTiter-Glo microbial cell viability reagent based bioluminescence assay relative to control (Rvb= 13.73%).
For test [4], the system named is Mycobacterium tuberculosis. Kind of test: Inhibition of wild type Mycobacterium tuberculosis H37Rv cytochrome bd oxidase assessed as inhibition of oxygen consumption at 0.1 uM and measured after 5 days by Methylene blue dye based assay. The note with it: time 5.0 day.
Test [5] deals with Mycobacterium tuberculosis. Kind of test: Synergistic antimycobacterial activity against wild type Mycobacterium tuberculosis H37Rv assessed as fractional inhibitory concentration index incubated for 7 days in presence of Q203 by checkboard format based resazurin microplate assay. The note with it: time 7 day. The class given is functional.
The test system of test [6] is Mycobacterium tuberculosis. Put plainly: Bactericidal activity against wild type Mycobacterium tuberculosis H37Rv under hypoxia condition assessed as reduction in log10 CFU at 32 uM incubated for 3 days by Methylene blue dye based CFU assay. The class given is functional. The note with it: time 3 day.
In test [7] the test system is Mycobacterium tuberculosis. Kind of test: Synergistic bactericidal activity against wild type Mycobacterium tuberculosis H37Rv under hypoxia condition assessed as reduction in log10 CFU at 32 uM incubated for 3 days in presence of Q203 by Methylene blue dye based CFU assay. The class given is functional. The note with it: time 3 day.
Test [8] concerns Mycobacterium tuberculosis. Kind of test: Inhibition of wild type Mycobacterium tuberculosis H37Rv cytochrome bd oxidase assessed as reduction in total cellular ATP level by measuring relative luminescence unit at 32 uM incubated for 15 hrs by BacTiter-Glo microbial cell viability reagent based bioluminescence assay relative to control (Rvb= 13.73%).
For test [9], the system named is Mycobacterium tuberculosis. Kind of test: Inhibition of wild type Mycobacterium tuberculosis H37Rv cytochrome bd oxidase assessed as reduction in total cellular ATP level by measuring relative luminescence unit at 32 uM incubated for 15 hrs in presence of Q203 by BacTiter-Glo microbial cell viability reagent based bioluminescence assay relative to control (Rvb= 13.73%).

Test [10] has as its system Mycobacterium tuberculosis. Kind of test: Inhibition of wild type Mycobacterium tuberculosis H37Rv cytochrome bd oxidase assessed as inhibition of oxygen consumption at 16 to 64 uM and measured after 5 days by Methylene blue dye based assay. The settings on record: dose 16-64 µM, time 5.0 day.
The test system of test [11] is Mycobacterium tuberculosis. Put plainly: Inhibition of wild type Mycobacterium tuberculosis H37Rv cytochrome bd oxidase assessed as inhibition of oxygen consumption at 16 to 64 uM and measured for 20 days in presence of Q203 by Methylene blue dye based assay. The settings on record: dose 16-64 µM, time 20.0 day.
Test [12] concerns Mycobacterium tuberculosis. Put plainly: Bactericidal activity against wild type Mycobacterium tuberculosis H37Rv under hypoxia condition assessed as reduction in log10 CFU at 0.5 uM incubated for 3 days by Methylene blue dye based CFU assay. The class given is functional. The note with it: time 3 day.
For test [13], the system named is Mycobacterium tuberculosis. Kind of test: Bactericidal activity against wild type Mycobacterium tuberculosis H37Rv under hypoxia condition assessed as reduction in log10 CFU at 0.5 ug/ml incubated for 3 days by Methylene blue dye based CFU assay. The class given is functional, organism-based. The settings on record: dose 0.5 µg/ml, time 3.0 day.

Values after ≈ are worked out from the molar mass of the structure shown. Active and inactive are the calls of the source.

As for `O=C(Cn1cnc2ccccc2c1=O)Nc1ccc([N+](=O)[O-])cc1`, the MIC in test [1] is greater than 32 µM. `CCc1nc2ccc(Cl)cn2c1C(=O)NCc1ccc(N2CCC(c3ccc(OC(F)(F)F)cc3)CC2)cc1` [TELACEBEC]: the MIC in test [1] came to 0.016 µM (≈ 0.00891 µg/mL). In test [2], the Activity is listed as 0.8 log10CFU. Moreover, the inhibition in [3] came out at 33.4%. Further, in test [4], the inhibition entry is “inactive”. `O=C(COc1ncnc2ccccc12)Nc1ccccc1`: the “fractional inhibitory concentration index (FICI)” value in test [5] is recorded as 1.062. The MIC in [1] turned out to be 128 µM (≈ 35.8 µg/mL). For the same molecule, the Activity came to 1.9 log10CFU in [6] and 4 log10CFU in test [7]. The results for the inhibition in [8] and in test [9] were 7% and 89.8%, respectively. In addition, the inhibition entry in [10] was “inactive”. Besides, the inhibition result in [11] is “Active”. As to `O=C(Cn1cnc2ccccc2c1=O)Nc1ccc(C(F)(F)F)cc1`, the MIC in test [1] is greater than 32 µM. Consider `COc1nc2ccc(Br)cc2cc1[C@@H](c1ccccc1)[C@@](O)(CCN(C)C)c1cccc2ccccc12` [BEDAQUILINE], for which, in test [12], the Activity came out at 2.3 log10CFU. As for `O=C(Cn1cnc2ccccc2c1=O)Nc1ccccc1`, the MIC in test [1] was greater than 32 µM.

Take `O=C(COc1ncnc2ccccc12)Nc1cccc2ccccc12`: in test [1], the MIC was greater than 32 µM.

Regarding `O=C(COc1ncnc2ccccc12)Nc1ccc(Br)cc1`, in test [1], the MIC is greater than 32 µM. Same read-out and setting: then `O=C(Cn1cnc2ccccc2c1=O)NC1=C(C(F)(F)F)CCC=C1`, with greater than 32 µM; and `O=C(Cn1cnc2ccccc2c1=O)Nc1ccc(OC(F)(F)F)cc1`, with greater than 32 µM; and `COc1ccccc1NC(=O)Cn1cnc2ccccc2c1=O`, with greater than 32 µM.

Regarding `COc1ccc(NC(=O)Cn2cnc3ccccc3c2=O)cc1`, in test [1], the MIC was greater than 32 µM. Consider `NNC(=O)c1ccncc1`, for which the outcome in test [13] was inactive.

Regarding `O=C(COc1ncnc2ccccc12)Nc1ccc(C(F)(F)F)cc1`, the MIC in [1] is greater than 32 µM. With `O=C(Cn1cnc2ccccc2c1=O)Nc1ccc(Br)cc1`, the MIC in test [1] was greater than 32 µM. On the same count and under the same terms, then `O=C(Cn1cnc2ccccc2c1=O)Nc1ccc(Cl)cc1`, with greater than 32 µM; and `Cc1ccc(NC(=O)COc2ncnc3ccccc23)cc1`, with greater than 32 µM.

Regarding `COc1ccccc1NC(=O)COc1ncnc2ccccc12`, the MIC in test [1] was greater than 32 µM. On the same count and under the same terms, then `O=C(COc1ncnc2ccccc12)NCc1ccc(N2CCN(c3ccc(F)cc3)CC2)cc1`, with greater than 32 µM; and `Cc1ccc(NC(=O)Cn2cnc3ccccc3c2=O)cc1`, with greater than 32 µM; and `Cc1ccccc1NC(=O)COc1ncnc2ccccc12`, with greater than 32 µM.

`O=C(Cn1cnc2ccccc2c1=O)Nc1ccc(F)cc1`: the MIC in [1] is greater than 32 µM. As to `O=C(COc1ncnc2ccccc12)NCc1ccc(N2CCN(c3ccccc3)CC2)cc1`, in test [1], the MIC was greater than 32 µM.

In the case of `O=C(COc1ncnc2ccccc12)NCc1ccc(N2CCC(c3ccccc3)CC2)cc1`, the MIC in test [1] is greater than 32 µM. The same measure, in the same setting: then `O=C(COc1ncnc2ccccc12)NCc1ccccc1`, with greater than 32 µM; and `CSc1ccc(NC(=O)Cn2cnc3ccccc3c2=O)cc1`, with greater than 32 µM. The same measure, in the same setting: then `O=C(COc1ncnc2ccccc12)Nc1ccc(F)cc1`, with greater than 32 µM. Same read-out and setting: then `COc1ccc(N2CCN(c3ccc(CNC(=O)COc4ncnc5ccccc45)cc3)CC2)cc1`, with greater than 32 µM. `O=C(COc1ncnc2ccccc12)Nc1ccc(OC(F)(F)F)cc1`: the MIC in test [1] is greater than 32 µM.

Take `O=C(COc1ncnc2ccccc12)NCc1ccc(N2CCN(Cc3ccccc3)CC2)cc1`: the MIC in test [1] was greater than 32 µM. In the case of `COc1ccc(NC(=O)COc2ncnc3ccccc23)cc1`, the MIC in test [1] is greater than 32 µM. For `O=C(COc1ncnc2ccccc12)Nc1ccc(Cl)cc1`, in [5], the “fractional inhibitory concentration index (FICI)” value was 0.375. In test [1], the MIC was found to be 256 µM (≈ 80.3 µg/mL). In addition, the Activity in [6] came to 1.9 log10CFU; in test [7], 4 log10CFU. Besides, the inhibition in test [8] worked out at 22.8%; in [9] it was 91.2%. Also, in test [10], the inhibition result is “inactive”. For the same molecule, the inhibition result in test [11] is “Active”.

As a reminder, the MIC is the smallest concentration in the dilution series that meets the test's criterion for growth inhibition. What is called inhibition is the drop in the measured response relative to a control, in per cent.
